Assay results: patent US7038055B2, “Sulfone derivatives and their use in the treatment of autoimmune diseases and allergies” (SmithKlineBeecham plc, priority 2001, dated 2006)

Assays:
[1] = biological target: T1, human recombinant collagenase (Homo sapiens, UniProt P03956); experiment: Collagenase Inhibition Assay; assay type: biochemical; details: 37° C., 18 h, 3H type 1 bovine collagen; read-out: IC50, collagenase inhibition (procedure 2)
T1 construct: made in house; host or cells: E. coli
T1 sequence (P03956 100-469): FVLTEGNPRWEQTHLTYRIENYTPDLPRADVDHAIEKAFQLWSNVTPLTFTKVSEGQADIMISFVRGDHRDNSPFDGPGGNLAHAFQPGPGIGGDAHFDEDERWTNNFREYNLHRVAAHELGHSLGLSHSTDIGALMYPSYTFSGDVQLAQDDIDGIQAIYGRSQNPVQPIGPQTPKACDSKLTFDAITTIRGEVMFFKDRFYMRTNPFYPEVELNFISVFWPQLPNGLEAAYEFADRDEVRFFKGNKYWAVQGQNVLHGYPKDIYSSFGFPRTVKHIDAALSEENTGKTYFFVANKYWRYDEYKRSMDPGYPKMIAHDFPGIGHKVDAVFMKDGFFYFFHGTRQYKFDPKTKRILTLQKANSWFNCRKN
Description: Procedure 2: The ability of test compounds to inhibit matrix metalloproteases was investigated using the following procedures.
Collagenase Inhibition Assay:
The potency of compounds to act as inhibitors of collagenase was determined by the method of Cawston and Barrett (Anal. Biochem. 99, 340–345, 1979), hereby incorporated by reference, whereby a 1 mM solution of the inhibitor being tested or dilutions thereof, was incubated at 37° C. for 18 h with collagen and human recombinant collagenase, from synovial fibroblasts cloned, expressed and purified from E. Coli, (buffered with 150 mM Tris, pH 7.6, containing 15 mM calcium chloride, 0.05% Brij 35, 200 mM sodium chloride and 0.02% sodium azide). The collagen was acetylated ^3H type 1 bovine collagen prepared by the method of Cawston and Murphy (methods in Enzymology 80, 711, 1981) The samples were centrifuged to sediment undigested collagen and an aliquot of the radioactive supernatant removed for assay on a scintillation counter as a measure of hydrolysis. The collagenase activity in the presence of 1 mM inhibitor, or dilution thereof, was compared to activity in a control devoid of inhibitor and the results reported as that concentration effecting 50% of the collagenase (IC50).

[2] = system: CD23 cleavage activity (release of soluble CD23) in RPMI 8866 cell plasma membranes; experiment: RPMI 8866 Cell Membrane CD23 Cleavage Activity Assay; assay type: biochemical, human; details: RPMI 8866 plasma membranes, 37° C., sCD23 by EIA; read-out: IC50, inhibition of production of sCD23
Description: Procedure 1: The ability of test compounds to inhibit the release of soluble CD23 was investigated by use of the following procedure.
RPMI 8866 Cell Membrane CD23 Cleavage Activity Assay:
Plasma membranes from RPMI 8866 cells, a human Epstein-Barr virus transformed B-cell line (Sarfati et al., Immunology 60 [1987] 539–547) expressing high levels of CD23 are purified using an aqueous extraction method. Cells resuspended in homogenization buffer (20 mM HEPES pH 7.4, 150 mM NaCl, 1.5 mM MgCl2, 1 mM DTT) are broken by N2 cavitation in a Parr bomb and the plasma membrane fraction mixed with other membranes is recovered by centrifugation at 10,000×g. […]
The fractionated membranes are incubated at 37° C. for times up to 4 hrs to produce fragments of CD23 which are separated from the membrane by filtration in 0.2 micron Durapore filter plates (Millipore) after quenching the assay with a non-selecitve MMP inhibitor, e.g. 5 uM Preparation 1 from WO 95/31457 ([4-(N-Hydroxyamino)-2-(R)-isobutyl-3-(S)-(2-thiophenethiomethyl)succinyl]-(S)-phenylalanine-N-methylamide sodium salt, prepared according to the procedure described in Example 11 of WO 90/05719). sCD23 released from the membrane is determined using the EIA kit from The Binding Site (Birmingham, UK) or a similar one utilising MHM6 anti-CD23 mAb [Rowe et al., Int. […]

[3] = biological target: T2, MMP-3 (Homo sapiens, UniProt P08254); experiment: General MMP Inhibition Assay, fluorescence quench (MMP-3); assay type: biochemical; details: room temperature
T2 construct: purchased Calbiochem
Description: (§1) General MMP Inhibition Assays:
(§2) Inhibition of matrix metalloprotease activity was determined using a fluorescence quench assay with appropriate substrate. For example, MMP activity was determined using MMP activated using trypsin, according to Lark et al, Connective Tissue Res. 25, 52 (1990). The MMP is incubated at room temperature in a microtitre plate in a total volume of 100 ul, containing 0.15 M Tris Cl, 15 mM CaCl2, 0.2 M NaCl, pH 7.6 (assay buffer); inhibitor at concentrations up to 100 uM, with no more than 2% DMSO final concentration, 10 uM substrate (such as SDP-3815-PI for MMP-1, Peptides International). The MMP concentration is <10 nM, and determined empirically with the appropriate substrate to give at least a 20-fold increase in fluorescence emission in 30 min. Fluorescent excitation wavelength was 355 nm, emission wavelength 400–460 nm, and data points are collected to generate slope (change in fluorescence with time). Percent inhibition for each concentration is calculated from the slope at time zero, and IC50 values from the concentration dependence. MMP-1, 2, 3, 7, 9, 13, 14 may all be assayed in the same manner, using commercially available substrates reported to be effective for each enzyme. Enzymes were obtained from Calbiochem and activated using the same trypsin method.

[4] = biological target: T3, MMP-13 (Homo sapiens, UniProt P45452); experiment: General MMP Inhibition Assay, fluorescence quench (MMP-13); assay type: biochemical; details: room temperature
T3 construct: purchased Calbiochem
Description: as §1, §2

T2 sequence (P08254 100-477, species assumed): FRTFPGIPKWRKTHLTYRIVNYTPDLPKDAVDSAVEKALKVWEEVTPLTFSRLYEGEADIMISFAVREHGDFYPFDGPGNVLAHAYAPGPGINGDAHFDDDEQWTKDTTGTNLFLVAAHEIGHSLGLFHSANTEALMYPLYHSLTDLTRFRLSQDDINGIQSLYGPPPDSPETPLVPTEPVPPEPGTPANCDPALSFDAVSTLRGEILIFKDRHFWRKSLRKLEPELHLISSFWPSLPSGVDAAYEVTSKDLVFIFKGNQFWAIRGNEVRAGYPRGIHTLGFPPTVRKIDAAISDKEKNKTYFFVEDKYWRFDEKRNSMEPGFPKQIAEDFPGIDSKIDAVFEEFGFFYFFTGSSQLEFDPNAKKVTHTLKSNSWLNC

Row | IC50 [1] | IC50 [2] | IC50 [3] | IC50 [4] | SMILES
1 | > 10 µM | 0.02 µM | > 10 µM | 2.6 µM | CO[C@H](C)[C@@H](CS(=O)(=O)Cc1cnc2ccccc2c1)N(O)C=O [Example 1, N-[(2S,3R)-3-methoxy-1-(quinolin-3-yl-methanesulfonyl)butan-2-yl]-hydroxyformamide]
2 | – | – | – | 3 µM | CO[C@@H](C)C(CS(=O)(=O)Cc1cnc2ccccc2c1)N(O)C=O (stereo in doubt) [Example 2, N-[(2R,3S)-3-methoxy-1-(quinolin-3-yl-methanesulfonyl)butan-2-yl]-hydroxyformamide]
